Test results as given in ChEMBL document CHEMBL2074165, “Evaluation of an immortalized retinal endothelial cell line as an in vitro model for drug transport studies across the blood-retinal barrier” (Pharm Res, 2003).

Biological target: ATP-dependent translocase ABCB1 (Homo sapiens, UniProt P08183)
Experiment: TP_TRANSPORTER: transepithelial transport (basal to apical) of AGN 197075 at a concentration of 10 uM in MDR1-expressing MDCK cells
Format: functional, cell-based
Conditions: dog

Chain of ATP-dependent translocase ABCB1 (P08183 whole entry): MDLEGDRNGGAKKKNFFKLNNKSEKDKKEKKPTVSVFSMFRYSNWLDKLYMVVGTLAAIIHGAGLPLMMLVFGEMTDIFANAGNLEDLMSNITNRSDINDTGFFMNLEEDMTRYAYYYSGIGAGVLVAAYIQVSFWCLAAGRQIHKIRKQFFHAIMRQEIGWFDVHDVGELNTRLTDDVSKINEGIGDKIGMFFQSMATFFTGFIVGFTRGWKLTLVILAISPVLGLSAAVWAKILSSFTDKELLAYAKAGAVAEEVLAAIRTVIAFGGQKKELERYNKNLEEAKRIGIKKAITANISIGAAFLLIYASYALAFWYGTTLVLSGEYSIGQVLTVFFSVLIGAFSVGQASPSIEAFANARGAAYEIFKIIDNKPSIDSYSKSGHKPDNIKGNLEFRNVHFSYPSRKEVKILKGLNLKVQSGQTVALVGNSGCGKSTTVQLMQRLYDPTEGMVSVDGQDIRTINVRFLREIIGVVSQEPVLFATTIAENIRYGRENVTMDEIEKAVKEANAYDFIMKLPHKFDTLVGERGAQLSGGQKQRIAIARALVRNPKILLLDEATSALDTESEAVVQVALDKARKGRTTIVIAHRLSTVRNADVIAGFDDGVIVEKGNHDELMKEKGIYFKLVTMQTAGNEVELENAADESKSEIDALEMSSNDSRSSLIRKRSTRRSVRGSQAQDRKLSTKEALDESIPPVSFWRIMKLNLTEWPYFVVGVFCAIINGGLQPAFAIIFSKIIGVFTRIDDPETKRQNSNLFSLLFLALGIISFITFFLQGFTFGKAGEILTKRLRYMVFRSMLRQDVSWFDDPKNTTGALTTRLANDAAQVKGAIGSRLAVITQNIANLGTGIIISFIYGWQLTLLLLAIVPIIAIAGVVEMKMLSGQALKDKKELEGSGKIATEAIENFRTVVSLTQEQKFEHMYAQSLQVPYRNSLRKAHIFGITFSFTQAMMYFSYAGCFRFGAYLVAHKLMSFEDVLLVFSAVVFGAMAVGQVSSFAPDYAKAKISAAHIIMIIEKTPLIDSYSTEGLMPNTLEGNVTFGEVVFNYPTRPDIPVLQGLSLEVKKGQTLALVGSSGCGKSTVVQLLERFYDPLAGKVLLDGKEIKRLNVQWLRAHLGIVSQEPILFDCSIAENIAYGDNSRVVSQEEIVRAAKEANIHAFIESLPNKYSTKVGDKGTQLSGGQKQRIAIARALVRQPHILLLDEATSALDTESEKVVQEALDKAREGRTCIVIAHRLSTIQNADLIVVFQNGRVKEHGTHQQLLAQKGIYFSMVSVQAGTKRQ

SMILES: OCCNC(=S)NCc1cccc(Cl)c1F
- Activity: substrate [+]
